The values that follow come from patent US8946142B2, “Beta-arrestin effectors and compositions and methods of use thereof” (Trevena, Inc., priority 2012, dated 2015).

Molecules are shown by their SMILES. Where a SMILES comes first, the peptide text is derived from it. [ ]: non-standard residue; d: D form. Ac6c = NC1(C(=O)O)CCCCC1; Ac5c = NC1(C(=O)O)CCCC1; Sar = CNCC(=O)O Some results are limits rather than exact numbers.

Type in all cases: cell-based
Assay [1] concerns the target T1, human AT1R (Homo sapiens, UniProt P30556).
T1 sequence (P30556 1-359): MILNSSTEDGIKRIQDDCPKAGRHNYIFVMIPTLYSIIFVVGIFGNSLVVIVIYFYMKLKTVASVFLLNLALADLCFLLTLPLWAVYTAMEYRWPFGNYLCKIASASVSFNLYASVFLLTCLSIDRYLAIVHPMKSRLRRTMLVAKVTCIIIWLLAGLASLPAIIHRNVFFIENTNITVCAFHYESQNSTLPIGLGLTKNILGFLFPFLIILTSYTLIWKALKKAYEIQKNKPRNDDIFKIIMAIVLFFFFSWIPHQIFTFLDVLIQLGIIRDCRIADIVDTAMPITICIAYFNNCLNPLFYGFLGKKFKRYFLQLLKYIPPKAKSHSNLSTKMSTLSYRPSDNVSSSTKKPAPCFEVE
The assay can be described thus: IP1 accumulation assay (IP1 G-protein assay), human AT1R. Conditions: for Emax: read-out: Span (relative to hAngII).

The target in assay [2] is T2, rat AT1aR (Rattus norvegicus, UniProt P25095).
T2 sequence (P25095 1-359): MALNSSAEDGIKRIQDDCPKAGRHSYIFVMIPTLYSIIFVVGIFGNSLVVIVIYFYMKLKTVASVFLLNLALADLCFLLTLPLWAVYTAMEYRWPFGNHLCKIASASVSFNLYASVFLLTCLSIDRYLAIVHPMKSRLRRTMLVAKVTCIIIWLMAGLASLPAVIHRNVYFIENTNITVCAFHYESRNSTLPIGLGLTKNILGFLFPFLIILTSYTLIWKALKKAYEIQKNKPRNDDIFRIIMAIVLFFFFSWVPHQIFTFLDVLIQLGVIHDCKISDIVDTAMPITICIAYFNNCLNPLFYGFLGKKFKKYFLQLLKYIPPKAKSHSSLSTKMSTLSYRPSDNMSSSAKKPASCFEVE
The assay is described as follows: IP1 accumulation assay (IP1 G-protein assay), rat AT1aR. Conditions: for Emax: read-out: Span (relative to hAngII).

Assay [3] addresses T1, human AT1R. The assay is described as follows: beta-arrestin2 recruitment assay (PathHunter), human AT1R. Conditions: for Emax: 1 h, read-out: Span (relative to hAngII). A digest of the protocol: (§1)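 Luminescence, in arbitrary units, read after 60 min room-temperature detection reflects β-arrestin-2 recruitment to human AT1R or rat AT1aR stably expressed in PathHunter HEK293 clones. Cells were exposed to peptides from 1 pM to 100 μM final in HEPES-buffered HBSS for 60 min at 37 °C.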
(In general: Arrestin recruitment assays detect the binding of arrestin to an activated receptor.)

Assay [4] deals with T2, rat AT1aR. The assay is described as follows: beta-arrestin2 recruitment assay (PathHunter), rat AT1aR. Particulars: for Emax: 1 h, read-out: Span (relative to hAngII). A digest of the protocol:
as §1

Regarding `CNCC(=O)N[C@@H](CCCNC(=N)N)C(=O)N[C@H](C(=O)N[C@@H](Cc1ccc(O)cc1)C(=O)N1CCC[C@H]1C(=O)N[C@@H](Cc1c[nH]cn1)C(=O)N1CCC[C@H]1C(=O)N[C@H](C)C(=O)O)C(C)C` [SEQ ID NO: 60, Sar-Arg-Val-Tyr-Pro-His-Pro-D-Ala] (H-[Sar]RVYPHP[dA]-OH), the EC50 on human AT1R [1] (read-out: EC50) is above 1.3 nM; at human AT1R [1] (read-out: pEC50 (converted)), above 0.631 nM; at rat AT1aR [2] (read-out: EC50), above 0.6 nM; at rat AT1aR [2] (read-out: pEC50 (converted)), above 0.631 nM; at human AT1R [3] (read-out: EC50) it was above 3.2 nM; at human AT1R [3] (read-out: pEC50 (converted)), above 3.16 nM. Also, the EC50 was above 3.2 nM on rat AT1aR [4] (read-out: EC50) and above 3.16 nM at rat AT1aR [4] (read-out: pEC50 (converted)). The Emax on human AT1R [1] was below 103%; on rat AT1aR [2] it was below 104%; on human AT1R [3], below 101%; at rat AT1aR [4] it was below 105%.
For `CC[C@H](C)[C@H](NC(=O)[C@@H]1CCCN1C(=O)[C@H](Cc1c[nH]cn1)NC(=O)C1(NC(=O)[C@H](Cc2ccc(O)cc2)NC(=O)[C@@H](NC(=O)[C@H](CCCNC(=N)N)NC(=O)CNC)C(C)C)CCCCC1)C(=O)O` [SEQ ID NO: 11, Sar-Arg-Val-Tyr-cyHex-His-Pro-Ile] (H-[Sar]RVY[Ac6c]HPI-OH), the EC50 on human AT1R [1] (read-out: EC50) was above 1.3 nM; on human AT1R [1] (read-out: pEC50 (converted)), above 0.631 nM; at rat AT1aR [2] (read-out: EC50) it was above 0.6 nM; on rat AT1aR [2] (read-out: pEC50 (converted)), above 0.631 nM; at human AT1R [3] (read-out: EC50), above 3.2 nM; on human AT1R [3] (read-out: pEC50 (converted)), above 3.16 nM. The EC50 at rat AT1aR [4] (read-out: EC50) was above 3.2 nM; on rat AT1aR [4] (read-out: pEC50 (converted)) it was above 3.16 nM. The Emax at human AT1R [1] is below 103%; on human AT1R [3], below 101%; at rat AT1aR [4] it was below 105%.
For `CC[C@H](C)[C@@H](C(=O)N[C@@H](Cc1c[nH]cn1)C(=O)N1CCC[C@H]1C(=O)N[C@@H](C)C(=O)O)N(C)C(=O)[C@H](Cc1ccc(O)cc1)NC(=O)[C@@H](NC(=O)[C@H](CCCNC(=N)N)NC(=O)CNC)C(C)C` [SEQ ID NO: 58, Sar-Arg-Val-Tyr-NMeIle-His-Pro-Ala], the “EC50 (nM)” value on human AT1R [1] was “Inactive”. Moreover, the pEC50 entry on human AT1R [1] is “Inactive”. The EC50 at rat AT1aR [2] (read-out: EC50) was above 0.6 nM; on rat AT1aR [2] (read-out: pEC50 (converted)), above 0.631 nM; on human AT1R [3] (read-out: EC50), above 3.2 nM; at human AT1R [3] (read-out: pEC50 (converted)), above 3.16 nM; at rat AT1aR [4] (read-out: EC50), above 3.2 nM; at rat AT1aR [4] (read-out: pEC50 (converted)), above 3.16 nM. For the same compound, the figures for the Emax on rat AT1aR [2], on human AT1R [3] and on rat AT1aR [4] were below 104%, below 101% and below 105%, respectively.
On to `CNCC(=O)N[C@@H](CCCNC(=N)N)C(=O)N[C@H](C(=O)N[C@@H](Cc1ccc(O)cc1)C(=O)N1CCC[C@H]1C(=O)N[C@@H](Cc1c[nH]cn1)C(=O)N1CCC[C@H]1C(=O)N[C@@H](CCSC)C(=O)O)C(C)C` [SEQ ID NO: 9, Sar-Arg-Val-Tyr-Pro-His-Pro-Met] (H-[Sar]RVYPHPM-OH; N-terminus and C-terminus assumed), for which the Emax on human AT1R [1] is below 103%; at rat AT1aR [2] it was below 104%; on human AT1R [3], below 101%; at rat AT1aR [4], below 105%.
As to `CNCC(=O)N[C@@H](CCCNC(=N)N)C(=O)N[C@H](C(=O)N[C@@H](Cc1ccc(O)cc1)C(=O)NC1(C(=O)N[C@@H](Cc2c[nH]cn2)C(=O)N2CCC[C@H]2C(=O)N[C@@H](C)C(=O)O)CCCC1)C(C)C` [SEQ ID NO: 3, Sar-Arg-Val-Tyr-cyPen-His-Pro-Ala], the EC50 at human AT1R [1] (read-out: EC50) was above 10000 nM; at human AT1R [1] (read-out: pEC50 (converted)), above 0.631 nM; at rat AT1aR [2] (read-out: EC50) it was above 0.6 nM; on rat AT1aR [2] (read-out: pEC50 (converted)), above 0.631 nM; on human AT1R [3] (read-out: EC50) it was above 3.2 nM; at human AT1R [3] (read-out: pEC50 (converted)), above 3.16 nM. For the same compound, the results for the EC50 at rat AT1aR [4] (read-out: EC50) and at rat AT1aR [4] (read-out: pEC50 (converted)) were above 3.2 nM and above 3.16 nM, respectively. In addition, the Emax on human AT1R [3] is below 101%; at rat AT1aR [4], below 105%.
Regarding `CNCC(=O)N[C@@H](CCCNC(=N)N)C(=O)N[C@H](C(=O)N[C@@H](Cc1ccc(O)cc1)C(=O)NC1(C(=O)N[C@@H](Cc2c[nH]cn2)C(=O)N2CCC[C@H]2C(=O)N[C@@H](CC(C)C)C(=O)O)CCCC1)C(C)C` [SEQ ID NO: 19, Sar-Arg-Val-Tyr-cyPen-His-Pro-Leu] (H-[Sar]RVY[Ac5c]HPL-OH), the EC50 at human AT1R [1] (read-out: EC50) was above 1.3 nM; at human AT1R [1] (read-out: pEC50 (converted)), above 0.631 nM; on rat AT1aR [2] (read-out: EC50) it was above 0.6 nM; on rat AT1aR [2] (read-out: pEC50 (converted)), above 0.631 nM; on human AT1R [3] (read-out: EC50), above 3.2 nM; at human AT1R [3] (read-out: pEC50 (converted)) it was above 3.16 nM. The EC50 was above 3.2 nM on rat AT1aR [4] (read-out: EC50) and above 3.16 nM at rat AT1aR [4] (read-out: pEC50 (converted)). Further, the Emax on human AT1R [1] is below 103%; at human AT1R [3] it was below 101%; on rat AT1aR [4], below 105%.
